Measured values published in patent publication US6235780A, “ω-cycloalkyl-prostaglandin E1 derivatives” (Ono Pharmaceutical Co., Ltd., priority 1998, dated 2001).

Legend:
[1] = target: T1, mouse EP2 (Mus musculus, UniProt Q62053); test: Binding assay using expression cell of prostanoids receptor subtype: 3H-PGE2 binding inhibition, EP2; conditions: 2.5 nM 3H-PGE2, CHO cell membrane fraction, pH 6.0, room temperature, 1 hour; read-out: Dissociation Constant Ki, EP2
T1 construct: expressed in transfected cells; host or cells: CHO cells
Protocol: (§1) (i) Binding assay using expression cell of prostanoids receptor subtype
(§2) The preparation of membrane fraction was carried out according to the method of Sugimoto et al. [J. Biol. Chem., 267, 6463-6466 (1992)], using expression CHO cell of the prostanoids receptor subtype (mouse EP1, EP2, EP3α, EP4).
(§3) The standard assay mixture containing membrane fraction (0.5 mg/ml), and ^3 H-PGE2 in a final volume of 200 μl was incubated at room temperature for 1 hour. The reaction was terminated by addition of 3 ml of ice-cooled buffer. The mixture was filtered through a GF/B glass filter under reduced pressure. The radioactivity associated with the filter was measured by liquid scintillation counter.
(§4) Kd and Bmax values were determined from Scatchard plots [Ann. N.Y. Acad. Sci., 51, 660 (1949)]. Non-specific binding was calculated as the binding in the presence of an excess (10 μM) of unlabeled PGE2. In the measurement of ^3 H-PGE2 binding inhibitory activity, 2.5 nM of ^3 H-PGE2 and various concentrations of the compounds of the present invention were added. The following buffer was used in all reactions.
(§5) Buffer; 10 mM potassium phosphate (pH 6.0), 1 mM EDTA, 10 mM MgCl2, 0.1 M NaCl.
(§6) The dissociation constant Ki (μM) of each compound was calculated by the following equation.

[2] = target: T2, mouse EP3α (Mus musculus, UniProt P30557); test: Binding assay using expression cell of prostanoids receptor subtype: 3H-PGE2 binding inhibition, EP3α; conditions: 2.5 nM 3H-PGE2, CHO cell membrane fraction, pH 6.0, room temperature, 1 hour; read-out: Dissociation Constant Ki, EP3α
T2 construct: expressed in transfected cells; host or cells: CHO cells
T2 sequence (P30557 1-365): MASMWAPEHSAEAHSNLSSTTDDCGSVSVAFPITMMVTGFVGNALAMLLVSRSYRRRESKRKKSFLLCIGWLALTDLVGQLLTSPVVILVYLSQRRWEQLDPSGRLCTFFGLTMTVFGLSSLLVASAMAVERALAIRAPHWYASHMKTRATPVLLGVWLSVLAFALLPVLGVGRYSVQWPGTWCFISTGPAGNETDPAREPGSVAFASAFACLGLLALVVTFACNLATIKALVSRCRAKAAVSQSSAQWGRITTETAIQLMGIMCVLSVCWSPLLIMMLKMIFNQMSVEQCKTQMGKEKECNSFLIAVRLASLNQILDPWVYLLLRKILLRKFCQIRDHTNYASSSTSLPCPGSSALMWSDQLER
Protocol: as §1, §2, §3, §4, §5, §6

[3] = target: T3, mouse EP4 (Mus musculus, UniProt P32240); test: Binding assay using expression cell of prostanoids receptor subtype: 3H-PGE2 binding inhibition, EP4; conditions: 2.5 nM 3H-PGE2, CHO cell membrane fraction, pH 6.0, room temperature, 1 hour; read-out: Dissociation Constant Ki, EP4
T3 construct: expressed in transfected cells; host or cells: CHO cells
Protocol: as §1, §2, §3, §4, §5, §6

[4] = target: T4, mouse EP1 (Mus musculus, UniProt P35375); test: Binding assay using expression cell of prostanoids receptor subtype: 3H-PGE2 binding inhibition, EP1; conditions: 2.5 nM 3H-PGE2, CHO cell membrane fraction, pH 6.0, room temperature, 1 hour; read-out: Dissociation Constant Ki, EP1
T4 construct: expressed in transfected cells; host or cells: CHO cells
T4 sequence (P35375 1-405): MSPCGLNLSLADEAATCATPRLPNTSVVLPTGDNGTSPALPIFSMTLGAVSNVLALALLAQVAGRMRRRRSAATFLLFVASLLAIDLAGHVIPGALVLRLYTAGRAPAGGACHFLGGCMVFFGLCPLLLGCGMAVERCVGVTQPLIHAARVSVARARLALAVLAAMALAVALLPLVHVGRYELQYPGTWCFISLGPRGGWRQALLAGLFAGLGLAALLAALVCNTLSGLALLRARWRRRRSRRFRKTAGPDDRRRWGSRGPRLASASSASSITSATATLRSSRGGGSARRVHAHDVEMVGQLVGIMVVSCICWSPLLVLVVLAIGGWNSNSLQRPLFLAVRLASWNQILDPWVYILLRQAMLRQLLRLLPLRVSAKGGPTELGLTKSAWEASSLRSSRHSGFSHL
Protocol: as §1, §2, §3, §4, §5, §6

T3 sequence (P32240 whole entry): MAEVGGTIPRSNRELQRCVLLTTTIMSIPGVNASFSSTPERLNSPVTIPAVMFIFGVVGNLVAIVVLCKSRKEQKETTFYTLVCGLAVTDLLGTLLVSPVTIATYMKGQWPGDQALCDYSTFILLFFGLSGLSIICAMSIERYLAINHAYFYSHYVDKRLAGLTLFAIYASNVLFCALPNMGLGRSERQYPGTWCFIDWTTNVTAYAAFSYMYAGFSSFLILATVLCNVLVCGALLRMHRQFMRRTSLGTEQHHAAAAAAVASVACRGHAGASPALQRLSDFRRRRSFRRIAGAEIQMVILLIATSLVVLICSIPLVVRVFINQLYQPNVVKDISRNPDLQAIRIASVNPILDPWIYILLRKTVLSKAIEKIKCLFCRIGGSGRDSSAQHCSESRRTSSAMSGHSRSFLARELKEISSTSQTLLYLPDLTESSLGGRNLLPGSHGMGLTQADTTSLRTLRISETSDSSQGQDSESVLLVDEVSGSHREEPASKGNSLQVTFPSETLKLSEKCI
T1 sequence (Q62053 whole entry): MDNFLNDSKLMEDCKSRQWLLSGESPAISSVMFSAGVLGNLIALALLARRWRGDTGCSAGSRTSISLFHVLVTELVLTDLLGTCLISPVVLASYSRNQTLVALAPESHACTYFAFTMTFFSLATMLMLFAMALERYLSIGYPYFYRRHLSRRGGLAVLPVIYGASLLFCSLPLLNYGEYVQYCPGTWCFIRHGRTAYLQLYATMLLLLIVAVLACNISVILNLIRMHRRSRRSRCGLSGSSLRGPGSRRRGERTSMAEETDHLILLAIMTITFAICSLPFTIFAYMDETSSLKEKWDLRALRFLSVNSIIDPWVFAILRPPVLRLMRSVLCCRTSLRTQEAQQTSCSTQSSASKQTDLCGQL

Structure (SMILES)	Ki [1]	Ki [2]	Ki [3]	Ki [4]
CCC1([C@@H](O)C/C=C/[C@@H]2[C@@H](CCCCCCC(=O)O)[C@H](Cl)C[C@H]2O)CCC1 [Example 2, (9β,11α,16α)-9-Chloro-11,16-dihydroxy-17,17-propano-20-norprosta-13E-enoic acid]	0.0081 µM	> 10 µM	1.7 µM	5.7 µM
CCC1([C@@H](O)C/C=C/[C@@H]2[C@@H](CCCCCCC(=O)O)[C@H](F)C[C@H]2O)CCC1 [Example 2(a), (9β,11α,16α)-9-Fluoro-11,16-dihydroxy-17,17-propano-20-norprosta-13E-enoic acid]	0.066 µM	> 10 µM	> 10 µM	> 10 µM
CCC1([C@@H](O)CCC[C@@H]2[C@@H](CCCCCCC(=O)O)[C@H](Cl)C[C@H]2O)CCC1 [Example 3(a), (9β,11α,16α)-9-Chloro-11,16-dihydroxy-17,17-propano-20-norprostanoic acid]	0.017 µM	> 10 µM	> 10 µM	3.5 µM
